The record followed here is patent publication US6784155B1, “Inhibitor and stimulator of stem cell proliferation and uses thereof” (Wellstat Therapeutics Corporation, priority 1996, dated 2004).

No end group written: not given here.

In series [1] the test system is CFU-MIX. As to the kind of experiment: Stimulation of cycling of quiescent murine stem cells, CFU-MIX cycling assay in vitro. The series is classed as cell-based, mouse. As to conditions: Table 44, 100 ng/ml, alone.
Series [2] has as its system CFU-MIX. As to the kind of experiment: Stimulation of cycling of quiescent murine stem cells after i.v. administration. The series is classed as in vivo. To be noted: Table 43, untreated B6D2F1 mice, 150 μg/mouse i.v., marrow 24 hours later. The protocol: Human alpha hemoglobin was injected i.v. into untreated B6D2F1 mice. 24 hours later, the mice were sacrificed, bone marrow collected from femurs and the CFU-MIX assay conducted as in Example 24.

Series [3] relates to CFU-MIX. The experiment in a line: Stimulation of cycling of quiescent murine stem cells, CFU-MIX cycling assay in vitro. The series is classed as cell-based, mouse. The protocol:
Microgram per milliliter doses of hemoglobin chains, myoglobin and peptides were assayed for stimulation of quiescent stem cells. Bone marrow was obtained from untreated B6D2F1 tested in the CFU-MIX cycling assay as in Example 24. Stem cells isolated from untreated B6D2F1 mice are normally slowly cycling unless stimulated (e.g. by testosterone propionate (cf. Example 1) or chemotherapy such as 5FU (cf. Example 4)) to enter into cycle.

Series [4] concerns cobblestone area forming cells (CAFC). The experiment in a line: Cobblestone assay (CAFC). The series is classed as cell-based, mouse. As for the experimental part: The cobblestone assay was conducted as described by Ploemacher and colleagues (Ploemacher et al., Blood 74:2755-63, 1989; van der Sluijs et al., Exp. Hematol. 18:893-6, 1990; Ploemacher et al., Blood 78:2527-33, 1991; Ploemacher et al., J. Tiss. Cult. Meth. 13:63-68, 1991; Down and Ploemacher, Exp. Hematol. 21:213-21, 1993). The cobblestone assay measures the appearance of groups of cells (or “cobblestones”) within a monolayer of stromal cells. Very primitive stem cells will not form colonies in soft agar but do form cobblestones in the presence of a stromal monolayer. The cells which form cobblestones are referred to as “cobblestone area forming cells” (CAFC). The more differentiated (e.g., GM-CFC) progenitors form transient cobblestones which appear and then disappear within the first few weeks of culture whereas more primitive stem cells (e.g., long-term repopulating cells) form cobblestones which appear only after 4-5 weeks of culture. Thus, CAFC forming on days 7-14 of culture are enriched in CFU-GM, CAFC forming on […] are enriched in CFU-MIX, and CAFC forming on days 28-35 are enriched in long-term repopulating cells. […]
The frequency of cobblestone area forming cells (CAFC) was calculated as previously described (Ploemacher et al., Blood 78:2527-33, 1991; Ploemacher et al., J. Tiss. Cult. Meth. 13:63-68, 1991; Breems et al., Leukemia 8:1095-104, 1994). […]

Series [5] is described as follows: Distribution of ubiquitin fusion proteins between soluble fraction and precipitate of E. coli lysate (SDS-PAGE). As to conditions: after centrifugation of the bacterial lysate. The series is classed as physicochemical. As for the experimental part: To obtain protein for assay, 100 ml starter cultures in 250 ml shake flasks were grown from single colonies by overnight incubation (16-20 hours) in 2×YT medium with ampicillin (100 μg/ml), neomycin (10 μg/ml) and 1% glucose. Shaker flask cultures were maintained at 30° C. and 250 rpm in a New Brunswick environmental shaker incubator. The next morning the culture was diluted to liter with medium Cells were induced by IPTG addition to 1 mM (final dilution) at OD600=0.5 and harvested at OD600=0.8 by centrifugation. The harvested cells were resuspended in hypotonic lysis buffer (100 μl of 50 mM Tris, pH 10.0). The bacterial cells were lysed by subjecting the suspension to three cycles of freeze-thaw (dry ice-ethanol bath for freezing and 60° C. for thawing). The suspension was then sonicated for 10 min and centrifuged at 12,000 g for 10 min. The resulting supernatant was designated as “S1”. The cell pellet was resuspended in 50 mM Tris, pH10 and 2×SDS tricine loading buffer (Novex, San Diego, Calif.) (1:1). The mixture was then heated at 95° C. for 15 min and centrifuged at 12,000 g for 10 min. The portion of the precipitate capable of being resolubilized in this manner was called “P1”. The portion of the precipitate derived from the remaining pellet was called “P2”. P2 was resuspended in loading buffer as for P1. Samples from S1, P1 and P2 were analyzed by SDS-PAGE. […]

With “Human alpha chain: purified, non-recombinant human alpha hemoglobin chain isolated by reversed-phase HPLC”, the “% Kill” value in series [1] is 48%; in series [2], 48%; in series [3] (Table 37, untreated B6D2F1 bone marrow, 1 μg/ml) it was 0%; in series [3] (Table 37, untreated B6D2F1 bone marrow, 10 μg/ml), 24%; in series [3] (Table 37, untreated B6D2F1 bone marrow, 100 μg/ml) it was 40%; in series [3] (Table 39, untreated B6D2F1 bone marrow, 100 μg/ml), 41%. Further, the “% Kill” value in series [3] (Table 40, untreated B6D2F1 bone marrow, 100 μg/ml) is listed as 30%. Further, the “increase of the proportion of late-forming CAFC” value in series [4] (cycling stem cells (testosterone propionate treated B6D2F1), 100 ng/10^6 cells, 4 hours) was “approximately 5 fold”. Besides, the “effect on CAFC of non-cycling stem cells” value in series [4] (non-cycling stem cells) was “no effect”.
For the substance “FPHFDLSHGSAQV [Peptide 43-55, amino acids 43-55 of human alpha hemoglobin]”, the “fraction of bacterial lysate containing the peptide” value in series [5] is recorded as “contained in the soluble fraction”. Moreover, the “% Kill” value in series [3] (Table 40, untreated B6D2F1 bone marrow, 10 μg/ml) is given as 26%.
